Results published in US20140205660A1, “Abscisic acid against cancer” (priority 2013, published 2014).
Like-named read-outs stand apart in the source and are kept apart here.

What was measured:
[1] = 50 mg/ml, Sigma-Aldrich material; cited from earlier work
leaf discs of V. Faba = conditions: cited from earlier work
[2] = can rearrange to PA; cited from earlier work
TCA8113 cells = conditions: cited from earlier work
[3] = tested on: C1498 transplanted tumor with myeloid leukemia; assay: Survival of C57BL/6J mice with C1498 transplanted tumor (Livingston); type: in vivo; conditions: for survival: oral
Source text: For determination of cancer survival rate, she used C57BL/6J mice and C1498 transplanted tumor with myeloid leukemia purchased from the Jackson Laboratory in Maine. This type of cancer was lethal in mice in 10-15 days. ABA furnished by Hoffmann-Laroche was suspended in saline and administered as suspension. Groups of 10 mice were used for treatment for a total of 7 days.

cancer cell lines = conditions: HELA, DU 145, HCT115, K562, C1498, HL-60, SMMC-7721, Tca8113; cited from earlier work
DU-145 (prostate cancer) = conditions: DU-145 tumor cells; cited from earlier work
[4] = tested on: HELA, DU145, HCT116 AND K562; conditions: cited from earlier work
stomata opening = conditions: 10 mcM ABA extracellular, cited from earlier work
cancer = conditions: 62 human cases, digestive ABA plus six vaccines, inconclusive cases not considered; cited from earlier work
[5] = tested on: C1498 transplanted tumor with myeloid leukemia; conditions: groups of 10 mice, 7 days treatment, cited from earlier work
nuclear protein Ki67 = conditions: proliferating tumor cells; cited from earlier work
Lemna gibba G1 = conditions: cited from earlier work
[6] = tested on: HL-60 (promyelocytic leukemia); conditions: HL-60 tumor cells; cited from earlier work

For `CC1=CC(=O)CC(C)(C)C1(O)/C=C/C(C)=C\C(=O)O` (racemic) [(+/−)-Abscisic acid], the “appearance of solution in ethanol” value [1] is given as “clear to slightly hazy”.

For `CC1=CC(=O)CC(C)(C)C1(O)/C=C/C(C)=C\C(=O)O` (racemic) [racemic ABA, reference compound], the half-life (leaf discs of V. Faba) is listed as 30 to 32 h.

In the case of `CC(C=CC1(O)C(C)=CC(=O)CC1(C)CO)=CC(=O)O` (centres unmarked) [Metabolite C, 6′-hydroxy methyl ABA], the stability [2] is given as “extremely unstable”.

For “[S-(Z,E)]-5-(1-Hydroxy-2,6,6-trimethyl-4-oxo-2-cyclohexen-1-yl)-3-methyl-2,4-pentadienoic acid [ABA]”, the half-life (leaf discs of V. Faba) is listed as 6 to 8 h, the Involucrin protein expression (TCA8113 cells; differentiation of TCA8113 affected by ABA) is listed as “expressed” and the “retinoic acid receptor beta (RARBETA) expression” value (TCA8113 cells; under treatment with ABA) is listed as “expressed and not silenced”. The survivors ([3]; group II, 1 mg/kg) was 90%, the survival ([3]; 10 mg/kg) was 60% and the survival ([3]; 100 mg/kg) was 90%. The “effect against cancer cell lines” value (cancer cell lines) was “severe effect”, the “changes in morphology of cancer cells” value (DU-145 (prostate cancer)) was “growth in poor condition and nuclear pycnosis” and the “effects in four human cancer cell lines” value [4] was “caused a tumor growth reduction, reduced cell proliferation rate, changed cell cycle progression, and produced induction of apoptosis”. For the same compound, the “inhibition of stomata opening” value (stomata opening; pH 6.15) was 98%, the “inhibition of stomata opening” value (stomata opening; pH 8.0) was 57% and the success rate (cancer) was “around 82%”. For the same compound, the “rate of survival at the end of 14 days” value ([5]; ABA 1 mg/kg i.p.) was 9 survivors, the “rate of survival at the end of 14 days” value ([5]; ABA 10 mg/kg i.p.) was 10 survivors and the “rate of survival at the end of 14 days” value ([5]; ABA 10 mg/kg oral) was 6 survivors. The “rate of survival at the end of 14 days” value ([5]; ABA 100 mg/kg oral) was 9 survivors, the “nuclear protein Ki67 expression” value (nuclear protein Ki67) was “reduced” and the “potential increase in average” value (Lemna gibba G1; 10-100 mcm ABA) was 85 mV. The “EPD after ABA treatment” value (Lemna gibba G1; after 15 hours ABA treatment, from −109 mV) was −194 mV and the “changes in morphology of cancer cells” value [6] was “absence of tumor cell nuclear membrane microvillus and presentation of typical apoptosis characteristics”.
